Consider one molecule from patent US9650389B2, “8-oxoprotoberberine derivative or pharmaceutically acceptable salt thereof, preparation method therefor and pharmaceutical composition for preventing or treating diseases associated with activity of NFAT5, containing same as active ingredient” (Korea Research Institute of Chemical Technology, priority 2013, dated 2017).

The target in data set [1] is T1, NFAT5 (Mus musculus, UniProt Q9WV30).
T1 construct: endogenous in cells; host or cells: RAW264.7
Nature of the data set: NFAT5 reporter screening (GFP, HCS) in LPS-treated Raw264.7 cells. The following applies: for Inhibition rate of NFAT5 transcription (%): Raw264.7 reporter, LPS 1 μg/ml, 48 hours. The data set is classed as cell-based. The method, then: To investigate whether or not the derivative of the present invention could inhibit the transcriptional activity of NFAT5, NFAT5 reporter screening was performed. A plasmid vector was constructed by eliminating CMV promoter sequence from the backbone and inserting NFAT5 binding site sequence ([…]) instead. Raw264.7 cells transfected with the vector were cultured in 10% FBS-PRMI (supplemented with 500 μg/ml G418). The cells were distributed in a 96-well plate at the density of 3×10^3 cells/well, followed by further culture for one more day. The cells were treated with LPS at the concentration of 1 μg/ml for 48 hours. Then, the cells were fixed and the expression level of GFP was measured by HCS fluorescence image (Thermo, ArrayScan^VTI).

The nature of data set [2]: Metabolic stability in rat liver microsomes. The following applies: rat liver microsome fractions, 30 minutes. The class given is in vitro ADME. The method, then:
Particularly, each compound was added to rat and human liver microsome fractions, followed by culture for 30 minutes. Each compound was administered via intravenous injection (iv) and oral-administration (po) to rat at the concentration of 5 mg/kg, followed by making pharmacokinetic profiles.
(Liver microsomes are vesicles of endoplasmic reticulum, rich in cytochrome P450 enzymes.)

The subject of data set [3] is NFAT5. Nature of the data set: NFAT5 transcription and nuclear localization in LPS-stimulated RAW264.7 cells. The class given is cell-based, mouse. The following applies: FIG. 4. Here is the method:
Particularly, RAW264.7 cells were distributed in a 12-well plate at the density of 1.5×10^5 cells/well, followed by culture in 10% FBS-RPMI 1640 medium. The cells were stabilized for a day. The compound of Example 1 was treated thereto at the concentration of 1 μM for 1 hour, and then the cells were stimulated with LPS for 12 hours. 12 hours later, mRNA was extracted from the cells, and cDNA was synthesized therefrom. PCR (real-time PCR) was performed to measure the expression level of NFAT5 mRNA. The migration of the transcription factor NFAT5 from the cytoplasm to the nucleus was investigated. Particularly, RAW264.7 cells were distributed in a 6-well plate at the density of 6×10^5 cells/well, followed by culture in 10% FBS-RPMI 1640 medium. The cells were pre-treated with the compound 6 (1 μM) for 1 hour, and treated with LPS (1 μg/ml) for 24 hours. Cytoplasm and nucleus proteins were separated from the stimulated cells and the levels of NFAT5 and p65 protein (NF-kB subunit) were measured.

The nature of data set [4]: Cytotoxicity test (WST-8), L929. The data set is classed as cell-based. The following applies: mouse, L929 fibroblast cells (NCTC clone 929); L929, 24 hours. The method, then:
(§1) To investigate the cytotoxicity of the derivative of the present invention, 5 kinds of cell lines (VERO: African green monkey kidney cell line, HFL-1: human embryonic lung cell line, L929: NCTC clone 929, mouse fibroblast cell line, NIH 3T3: mouse embryonic fibroblast cell line, and CHO-K1: Chinese hamster ovary cell line) were distributed in a 96-well plate at the density of 1×10^4 cells/well, which were treated with the compound of the present invention for 24 hours. The water-soluble tetrazolium salt WST-8 was added thereto. The orange colored formazan dye degraded by dehydrogenase in the live cells was read, followed by nonlinear regression to determine 50% growth inhibition concentration.
In general terms: Tetrazolium assays rely on reduction of a dye to a coloured formazan, in cell work by metabolically active cells.

In the next data set the target is T2, COX2 (Ovis aries, UniProt P79208).
T2 construct: purchased Cayman Co. 760111
T2 sequence (P79208 17-603): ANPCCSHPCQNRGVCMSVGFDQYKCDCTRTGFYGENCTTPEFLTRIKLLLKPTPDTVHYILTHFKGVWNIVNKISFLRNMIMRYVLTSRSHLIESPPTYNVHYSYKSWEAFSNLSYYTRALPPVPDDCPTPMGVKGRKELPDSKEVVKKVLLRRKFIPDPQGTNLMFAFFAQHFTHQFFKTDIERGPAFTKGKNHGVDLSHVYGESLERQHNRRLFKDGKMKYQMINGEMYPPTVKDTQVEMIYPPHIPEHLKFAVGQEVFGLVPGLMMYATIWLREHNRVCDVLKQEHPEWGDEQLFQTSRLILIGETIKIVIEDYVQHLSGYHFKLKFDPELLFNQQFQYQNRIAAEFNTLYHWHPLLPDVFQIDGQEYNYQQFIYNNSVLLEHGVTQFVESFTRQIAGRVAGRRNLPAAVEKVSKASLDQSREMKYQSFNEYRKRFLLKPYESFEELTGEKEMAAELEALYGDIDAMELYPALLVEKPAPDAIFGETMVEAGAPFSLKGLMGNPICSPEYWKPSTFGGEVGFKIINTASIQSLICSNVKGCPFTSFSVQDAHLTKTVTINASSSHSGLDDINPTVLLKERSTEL
The data set can be described thus: COX inhibition, COX assay kit (Table 5). The class given is biochemical. The method, then:
10 μl of substrate and 10 μl of arachidonic acid were added thereto, followed by reaction for 10 minutes in the darkness. Then, OD590 was measured.

The test system of data set [5] is NFAT5. Nature of the data set: NFAT5 protein in LPS-stimulated spleen cells of collagen-induced arthritis mice. The class given is in vivo. The following applies: CIA mouse spleen cells treated with LPS; FIG. 9. An excerpt:
Particularly, the spleen cells of the mouse having arthritis induced by collagen by the same manner as described in Example 11 were stimulated with LPS. Protein was extracted from the cells, followed by quantification of NFAT5 protein.

Data set [6] concerns NFAT5 transcript BGT1 and AR. Nature of the data set: NaCl-mediated up-regulation of NFAT5 transcripts (hypertonic condition), RAW264.7 cells, real-time PCR. The data set is classed as cell-based, mouse. The following applies: 1 μM pre-treatment 1 hour, NaCl 45 mM 3 hours. The method, then: It was investigated whether or not the factors regulated by NFAT5 under the hypertonic condition could be affected by the compound of Example 1. Particularly, RAW264.7 cells were distributed in a 6-well plate at the density of 1.5×10^5 cells/well, followed by culture and stabilization in 10% FBS-RPMI 1640 medium. The cells were pre-treated with the compound of Example 1 (1 μM) for 1 hour, and then stimulated with NaCl (45 mM) for 3 hours. mRNA was extracted from the cells, from which cDNA was synthesized.

Data set [7] can be described thus: Cytotoxicity test (WST-8), NIH 3T3. The data set is classed as cell-based. The following applies: mouse, NIH 3T3 embryonic fibroblast cells; NIN3T3, 24 hours. The method, then: as §1

T1 sequence (Q9WV30 whole entry): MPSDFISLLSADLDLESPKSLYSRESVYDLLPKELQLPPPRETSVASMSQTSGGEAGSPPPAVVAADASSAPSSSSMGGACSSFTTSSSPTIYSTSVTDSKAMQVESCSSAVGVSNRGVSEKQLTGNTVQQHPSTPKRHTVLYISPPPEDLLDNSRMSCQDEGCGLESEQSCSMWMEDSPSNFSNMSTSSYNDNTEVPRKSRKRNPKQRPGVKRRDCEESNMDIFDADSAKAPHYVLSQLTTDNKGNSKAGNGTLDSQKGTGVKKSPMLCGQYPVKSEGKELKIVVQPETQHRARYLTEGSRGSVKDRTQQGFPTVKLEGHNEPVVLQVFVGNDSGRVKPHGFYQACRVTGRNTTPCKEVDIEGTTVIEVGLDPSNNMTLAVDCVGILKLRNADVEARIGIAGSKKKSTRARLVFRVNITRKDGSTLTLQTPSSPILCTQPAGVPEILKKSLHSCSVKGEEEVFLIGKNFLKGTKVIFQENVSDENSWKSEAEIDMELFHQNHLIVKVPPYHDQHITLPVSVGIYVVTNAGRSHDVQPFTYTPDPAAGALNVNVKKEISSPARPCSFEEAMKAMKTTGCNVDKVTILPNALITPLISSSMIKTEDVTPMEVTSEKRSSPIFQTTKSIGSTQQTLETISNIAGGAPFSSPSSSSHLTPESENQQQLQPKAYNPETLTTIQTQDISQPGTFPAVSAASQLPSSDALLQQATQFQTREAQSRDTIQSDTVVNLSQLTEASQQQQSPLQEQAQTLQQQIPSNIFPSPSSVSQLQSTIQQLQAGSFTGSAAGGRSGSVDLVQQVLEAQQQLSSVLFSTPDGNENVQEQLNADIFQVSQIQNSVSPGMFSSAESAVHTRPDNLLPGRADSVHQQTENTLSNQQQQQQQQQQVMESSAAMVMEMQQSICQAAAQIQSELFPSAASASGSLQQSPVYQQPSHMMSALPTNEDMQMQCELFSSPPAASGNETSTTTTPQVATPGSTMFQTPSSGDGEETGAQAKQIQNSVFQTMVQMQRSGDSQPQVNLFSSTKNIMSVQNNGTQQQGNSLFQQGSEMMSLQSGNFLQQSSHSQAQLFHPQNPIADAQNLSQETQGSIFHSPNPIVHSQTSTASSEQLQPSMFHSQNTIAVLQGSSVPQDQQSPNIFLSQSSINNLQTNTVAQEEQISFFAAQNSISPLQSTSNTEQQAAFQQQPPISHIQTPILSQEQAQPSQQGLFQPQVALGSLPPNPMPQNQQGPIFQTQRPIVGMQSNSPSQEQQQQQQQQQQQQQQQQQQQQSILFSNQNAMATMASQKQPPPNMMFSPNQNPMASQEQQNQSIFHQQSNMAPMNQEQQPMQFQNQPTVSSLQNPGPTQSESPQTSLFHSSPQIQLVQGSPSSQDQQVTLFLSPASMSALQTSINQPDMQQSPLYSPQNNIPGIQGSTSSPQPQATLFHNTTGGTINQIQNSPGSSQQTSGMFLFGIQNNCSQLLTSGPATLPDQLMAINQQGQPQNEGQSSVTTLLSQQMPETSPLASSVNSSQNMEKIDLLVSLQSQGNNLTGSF

For orientation: GI50 means the concentration giving 50% growth inhibition. The low end stands for more potent growth inhibition, the high end for less potent growth inhibition. Usually inhibition stands for how much of the control response was suppressed. As usually defined, the IC50 is the concentration at which inhibition is half-maximal. High values mean a need for much substance, low ones inhibition by little substance. For `COc1ccc2c(Cc3ccccc3F)c3n(c(=O)c2c1OC)CCc1cc2c(cc1-3)OCO2` [Example 1, 13-(2-fluorobenzyl)-9,10-dimethoxy-5H-[1,3]dioxolo[4,5-g]isoquinolino[3,2-a]isoquinoline-8(6H)-one], the “Inhibition rate of NFAT5 transcription (%)” value was 11.2% at NFAT5 [1] (1 μM) and 81.2% on NFAT5 [1] (10 μM). On NFAT5 [1] (Table 3 and FIG. 1), the “inhibiting NFAT5 activity (in words)” value is reported as “remarkably excellent in inhibiting NFAT5 activity”. In data set [2], the “remaining compound, Rat (%)” value was 35 ± 3%. Also, the “increase of NFAT5 expression caused by LPS (from the phase of transcript)” value with NFAT5 [3] (1 μM for 1 hour, LPS 12 hours, real-time PCR) is given as “suppressed”. In addition, the “NFAT5 protein level increased by LPS (cytoplasm/nucleus)” value in the data set on NFAT5 [3] (1 μM pre-treatment 1 hour, LPS 1 μg/ml 24 hours) was “reduced”. The results for the concentration for 50% growth inhibition (GI50) at 24 h in data set [4] and in data set [7] were 40.3 µM and 7.16 µM, respectively. In addition, the “inhibitory effect on COX2 (in words)” value against COX2 is reported as “weak inhibitory effect”. In addition, the inhibition rate at COX2 (Conc. 20 μM, two values per substance) was found to be 15.5; against COX2 (Conc. 100 μM, two values per substance), 25.7. Moreover, the inhibition at 20 µM at COX2 (Conc. 20 μM, two values per substance, read-out: inhibition rate) is 12.1%. Further, the inhibition at 100 µM on COX2 (Conc. 100 μM, two values per substance, read-out: inhibition rate) came out at 36.7%. Also, the IC50 on COX2 (Table 5) is > 100 µM. For the same molecule, the “expression of NFAT5” value with NFAT5 [5] is reported as “suppressed”. Moreover, the “NaCl-mediated up-regulation of BGT1 transcript” value in data set [6] (FIG. 5A) was “not changed”. Also, in data set [6] (FIG. 5B), the “NaCl-mediated up-regulation of AR transcript” value was “not changed”.
